This is an account of results in patent US7572823B2, “Heteroaryl carboxamide compounds” (Hoffmann-La Roche Inc., priority 2006, dated 2009).

This assay has as its target T1, cholesteryl ester transfer protein (CETP) (Homo sapiens, UniProt P11597).
T1 construct: the source of CETP was human lipoprotein-deprived serum (LPDS); from tissue; host or cells: human lipoprotein-deprived serum (LPDS)
T1 sequence (P11597 18-493): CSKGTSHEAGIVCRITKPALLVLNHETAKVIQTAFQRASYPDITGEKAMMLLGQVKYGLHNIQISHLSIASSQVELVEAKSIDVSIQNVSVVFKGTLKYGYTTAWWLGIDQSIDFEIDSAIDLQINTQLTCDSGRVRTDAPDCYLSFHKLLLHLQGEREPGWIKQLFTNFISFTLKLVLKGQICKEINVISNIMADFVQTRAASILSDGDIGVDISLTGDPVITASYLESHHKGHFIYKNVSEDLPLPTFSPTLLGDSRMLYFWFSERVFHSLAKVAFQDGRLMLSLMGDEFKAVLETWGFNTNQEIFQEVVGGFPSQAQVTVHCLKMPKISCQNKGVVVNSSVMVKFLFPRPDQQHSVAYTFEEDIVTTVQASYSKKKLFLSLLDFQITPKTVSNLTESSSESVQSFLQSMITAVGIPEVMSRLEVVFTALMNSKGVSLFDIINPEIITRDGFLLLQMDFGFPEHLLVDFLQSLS
The assay can be described thus: CETP inhibition SPA assay in the presence of plasma (CETP source: human lipoprotein-deprived serum). It counts as biochemical. Conditions: CETP source human lipoprotein-deprived serum (LPDS), radiolabeled cholesteryl ester transfer from HDL donor to biotin-labeled LDL acceptor. As for the experimental part: Activity of CETP inhibitors was determined using a buffer assay system. Partially purified CETP transferred radiolabeled cholesteryl ester from HDL donor particles to biotin-labeled LDL acceptor particles. The reaction was stopped by addition of streptavidin-coupled scintillation proximity assay (SPA) beads. These beads captured the biotinylated acceptor particles and transferred radioactivity was measured. The assay system was purchased and performed according to manufacturer's recommendations (Amersham Biosciences). Inhibitory activity of compounds was determined as percentage of positive control activity containing CETP together with donor and acceptor particles. Serial dilution of compounds was performed in order to determine the IC50 values. Activity of the compounds was subsequently measured in the presence of plasma using the same assay as described above except that the source of CETP was human lipoprotein-deprived serum (LPDS). Inhibitory activity of compounds was determined as percentage of positive control activity containing all the assay components except compound. Serial dilution of compounds was performed in order to determine the IC50 values.
One may read the IC50 as the midpoint of a concentration-inhibition curve. Consider `C[Si](C)(C)c1ccc(CN(CCc2cccc(C(F)(F)F)c2)C(=O)c2c(F)c(Cl)cc3cc[nH]c23)cc1` [Example 3, 5-Chloro-6-fluoro-1H-indole-7-carboxylic acid [2-(3-trifluoromethyl-phenyl)-ethyl]-(4-trimethylsilanyl-benzyl)-amide], for which the IC50 turned out to be 16 nM.

Regarding `C[Si](C)(C)c1ccc(CN(CCc2cccc(OC(F)(F)F)c2)C(=O)c2c(F)c(Cl)cc3cc[nH]c23)cc1` [Example 1, 5-Chloro-6-fluoro-1H-indole-7-carboxylic acid [2-(3-trifluoromethoxy-phenyl)-ethyl]-(4-trimethylsilanyl-benzyl)-amide], the IC50 is 21 nM.

In the case of `CC(C)[Si](C)(C)c1ccc(CN(CCc2cccc(C(F)(F)F)c2)C(=O)c2c(F)c(Cl)cc3cc[nH]c23)cc1` [Example 6, 5-Chloro-6-fluoro-1H-indole-7-carboxylic Acid [4-(isopropyl-dimethyl-silanyl)-benzyl]-[2-(3-trifluoromethyl-phenyl)-ethyl]-amide], the IC50 was found to be 44 nM.
